From patent US4521430A, “1,5-Benzothiazepin-4-one, their pharmaceutical compositoins, and methods of use” (Tanabe Seiyaku Co., Ltd., priority 1983, dated 1985)
Structures can show the parent of a compound that is named as a salt.

Tests used:
[1] = test system: vertebral artery blood flow; assay: Cerebral vasodilating activity: vertebral artery blood flow in anesthetized dogs, injection into vertebral artery (Experiment 1); type: in vivo; conditions: anesthetized male dogs, injected into vertebral artery; Table 1
Protocol: (§1) For example, when the cerebral vasodilating activity is evaluated by examining vertebral artery blood flow in anesthetized dogs to which a test compound is intraarterially administered, said activity of (+)-cis-2-(4-methoxyphenyl)-3-(2-chloro-4-nitrobenzoyloxy)-5-[2-(dimethylamino)ethyl]-2,3-dihydro-1,5-benzothiazepin-4-(5H)-one fumarate is 4.5 times stronger than that of papaverine. On the other hand, the coronary vasodilating activity of (+)-cis-2-(4-methoxyphenyl)-3-(2-chloro-4-nitrobenzoyloxy)-5-[2-(dimethylamino)ethyl]-2,3-dihydro-1,5-benzothiazepin-4(5H)-one fumarate when examined by the Langendorff method using isolated hearts of guinea pigs is 10 times stronger than that of papaverine.
(Cerebral vasodilating activity)
Male dogs weighing 10 to 20 kg were anesthetized with sodium pentobarbital (30 mg/kg, intravenous injection). The blood flow in vertebral artery was measured continuously by means of an electromagnetic flowmeter under artificial respiration. A test compound dissolved in an aqueous 5% glucose solution was injected into vertebral artery. The cerebral vasodilating activity of the test compound was estimated in terms of "the potency ratio of said compound to papaverin" which was calculated from the dose-responsecurves thereof.

calmodulin = calmodulin (Homo sapiens, UniProt P0DP23); assay: Anti-calmodulin activity: activation of phosphodiesterase activity by calmodulin (Experiment 5); type: biochemical; conditions: pH 7.5, 30° C.; Table 4; read-out: ID50 (concentration for 50% inhibition of the activation of phosphodiesterase activity by calmodulin)
[2] = test system: cerebral and/or coronary vasodilating activity; conditions: Japanese Patent Publication Nos. 43784/1971 and 8544/1972; cited from earlier work
[3] = test system: coronary blood flow of the isolated heart; assay: Coronary vasodilating activity: Langendorff's method, coronary blood flow of isolated heart (Experiment 3); design: species or system guinea pig; conditions: isolated guinea pig heart, Langendorff; Table 2
Protocol: as §1
Langendorff's method was used for testing the effect on the coronary blood flow of the isolated heart of guinea pig (about 280 g). The isolated heart was perfused with Locke-Ringer solution containing 2% of defibrinated rabbit blood, which had been saturated with a mixed gas of 95% O2 and 5% CO2 (30° C.). Perfusion pressure was kept at 40 cm H2 O. A solution of a test compound in an aqueous 5% glucose solution was injected into the perfusing solution at a volume of 0.1 ml per heart. The outflow of the perfusate was measured by means of a drop counter.
The coronary vasodilating activity of the test compound was expressed as "±" if the increase in coronary blood flow is less than 0.5 ml/minute at a dose of 100 μg/heart; "+" if the increase is not less than 0.5 ml/minute at a dose of 100 μg/heart; "++" if the increase is not less than 0.5 ml/minute at a dose of 30 μg/heart; and "+++" if the increase is not less than 0.5 ml/minute at a dose of not more than 10 μg/heart.

platelet aggregation = assay: Platelet aggregation-inhibiting activity, collagen, platelet-rich plasma (Experiment 4); type: cell-based, Sprague-Dawley rats; design: key: -: the test compound showed less than 10% inhibition of platelet aggregation; +: the test compound showed not less than 10% inhibition of platelet aggregation but said percentage inhibition was lower than that of acetylsalicylic acid (100 μg/ml); ++: the test compound showed the platelet aggregation-inhibiting activity at least as strong as that of acetylsalicylic acid (100 μg/ml); conditions: final concentration 100 μg/ml, rat PRP, 37° C., Table 3
Text: Blood was collected from the abdominal aorta of male Sprague-Dawley rats which were anesthetized with ether. Nine volumes of said blood were mixed with one volume of an aqueous 3.8% (w/v) trisodium citrate solution, and the mixture was centrifuged to give platelet-rich plasma ("PRP") as the supernatant solution. The bottom layer was further centrifuged to give platelet-poor plasma ("PPP") as the supernatant solution. Platelet counts were adjusted to 0.8-1×10^6 /mm^3 for PRP by dilution with PPP. After a mixture of 200 μl of the diluted PRP and 25 μl of a test compound solution (final concentration: 100 μg/ml) was stirred for 2 minutes at 37° C., 25 μl of a collagen solution (Biochim. Biophys. Acta, 186, page 254(1969)) were added thereto. The degree of platelet aggregation was estimated by Born's method (Nature, 194, page 927(1962)) and percentage inhibition of platelet aggregation was calculated therefrom.

[4] = test system: atrioventricular conduction; conditions: known calcium-antagonistic vasodilator; cited from earlier work

COc1ccc([C@@H]2Sc3ccccc3N(CCN(C)C)C(=O)[C@@H]2OC(=O)c2ccc(Cl)c([N+](=O)[O-])c2)cc1.O=C(O)C(=O)O [(+)-cis-2-(4-methoxyphenyl)-3-(4-chloro-3-nitrobenzoyloxy)-5-[2-(dimethylamino)ethyl]-2,3-dihydro-1,5-benzothiazepin-4(5H)-one oxalate]
Cerebral vasodilating activity (potency ratio to papaverin, class) [1]: +++ (the potency ratio is not less than 3) | IC50 (calmodulin): 1400 nM

COc1ccc(C2Sc3ccccc3N(CCN(C)C)C(=O)C2OC(=O)c2ccccc2)cc1 (stereo not drawn) [2-(4-methoxyphenyl)-3-benzoyloxy-5-[2-(dimethylamino)ethyl]-2,3-dihydro-1,5-benzothiazepin-4(5H)-one]
coronary vasodilating activity (known) [2]: have a coronary vasodilating activity

COc1ccc([C@@H]2Sc3ccccc3N(CCN(C)C)C(=O)[C@@H]2OC(=O)c2ccc([N+](=O)[O-])cc2)cc1.O=C(O)/C=C\C(=O)O (racemic) [(±)-cis-2-(4-methoxyphenyl)-3-(4-nitrobenzoyloxy)-5-[2-(dimethylamino)ethyl]-2,3-dihydro-1,5-benzothiazepin-4(5H)-one maleate]
Coronary vasodilating activity (class) [3]: +++ (the increase is not less than 0.5 ml/minute at a dose of not more than 10 μg/heart)

COc1ccc([C@@H]2Sc3ccccc3N(CCN(C)C)C(=O)[C@@H]2OC(=O)c2ccc([N+](=O)[O-])cc2)cc1.O=C(O)/C=C/C(=O)O [(+)-cis-2-(4-methoxyphenyl)-3-(4-nitrobenzoyloxy)-5-[2-(dimethylamino)ethyl]-2,3-dihydro-1,5-benzothiazepin-4(5H)-one fumarate]
Cerebral vasodilating activity (potency ratio to papaverin, class) [1]: +++ (the potency ratio is not less than 3) | Coronary vasodilating activity (class) [3]: +++ (the increase is not less than 0.5 ml/minute at a dose of not more than 10 μg/heart) | Platelet aggregation-inhibiting activity (class) (platelet aggregation): ++ | IC50 (calmodulin): 4500 nM

COc1ccc([C@@H]2Sc3ccccc3N(CCN(C)C)C(=O)[C@@H]2OC(=O)c2ccc(Cl)cc2[N+](=O)[O-])cc1.Cl [(+)-cis-2-(4-methoxyphenyl)-3-(4-chloro-2-nitrobenzoyloxy)-5-[2-(dimethylamino)ethyl]-2,3-dihydro-1,5-benzothiazepin-4(5H)-one hydrochloride]
Cerebral vasodilating activity (potency ratio to papaverin, class) [1]: +++ (the potency ratio is not less than 3) | Coronary vasodilating activity (class) [3]: +++ (the increase is not less than 0.5 ml/minute at a dose of not more than 10 μg/heart)

COc1ccc([C@@H]2Sc3ccccc3N(CCN(C)C)C(=O)[C@@H]2OC(=O)c2ccc([N+](=O)[O-])c(OC)c2)cc1 [(+)-cis-2-(4-methoxyphenyl)-3-(3-methoxy-4-nitrobenzoyloxy)-5-[2-(dimethylamino)ethyl]-2,3-dihydro-1,5-benzothiazepin-4(5H)-one methanesulfonate]
IC50 (calmodulin): 2700 nM

COc1ccc(C2Sc3ccccc3N(CCN(C)C)C(=O)C2OCc2ccccc2)cc1 (stereo not drawn) [2-(4-methoxyphenyl)-3-benzyloxy-5-[2-(dimethylamino)ethyl]-2,3-dihydro-1,5-benzothiazepin-4(5H)-one]
coronary vasodilating activity (known) [2]: have a coronary vasodilating activity

CCN(C)CCN1C(=O)[C@H](OC(=O)c2ccc([N+](=O)[O-])cc2Cl)[C@H](c2ccc(OC)cc2)Sc2ccccc21 [(+)-cis-2-(4-methoxyphenyl)-3-(2-chloro-4-nitrobenzoyloxy)-5-[2-(N-methyl-N-ethylamino)ethyl]-2,3-dihydro-1,5-benzothiazepin-4(5H)-one oxalate]
IC50 (calmodulin): 2100 nM

CCN(CC)CCN1C(=O)[C@H](OC(=O)c2ccc([N+](=O)[O-])cc2Cl)[C@H](c2ccc(OC)cc2)Sc2ccccc21.Cl [(+)-cis-2-(4-methoxyphenyl)-3-(2-chloro-4-nitrobenzoyloxy)-5-[2-(diethylamino)ethyl]-2,3-dihydro-1,5-benzothiazepin-4(5H)-one hydrochloride]
Cerebral vasodilating activity (potency ratio to papaverin, class) [1]: +++ (the potency ratio is not less than 3) | IC50 (calmodulin): 2100 nM

COc1ccc([C@@H]2Sc3ccccc3N(CCN(C)C)C(=O)[C@@H]2OC(=O)c2ccccc2[N+](=O)[O-])cc1.Cl (racemic) [(±)-cis-2-(4-methoxyphenyl)-3-(2-nitrobenzoyloxy)-5-[2-(dimethylamino)ethyl]-2,3-dihydro-1,5-benzothiazepin-4(5H)-one hydrochloride]
Platelet aggregation-inhibiting activity (class) (platelet aggregation): ++

COc1ccc(CCN(C)CCCC(C#N)(c2ccc(OC)c(OC)c2)C(C)C)cc1OC (stereo not drawn) [verapamil, 5-[(3,4-dimethoxyphenethyl)methylamino]-2-(3,4-dimethoxyphenyl)-2-isopropylvaleronitrile]
effect on atrioventricular conduction (known) [4]: inhibits atrioventricular conduction to cause the prolongation of atrioventricular conduction time

COc1ccc([C@@H]2Sc3ccccc3N(CCN(C)C)C(=O)[C@@H]2OC(=O)c2ccc([N+](=O)[O-])c(C)c2)cc1.Cl [(+)-cis-2-(4-methoxyphenyl)-3-(3-methyl-4-nitrobenzoyloxy)-5-[2-(dimethylamino)ethyl]-2,3-dihydro-1,5-benzothiazepin-4(5H)-one hydrochloride]
Cerebral vasodilating activity (potency ratio to papaverin, class) [1]: +++ (the potency ratio is not less than 3) | Coronary vasodilating activity (class) [3]: +++ (the increase is not less than 0.5 ml/minute at a dose of not more than 10 μg/heart) | Platelet aggregation-inhibiting activity (class) (platelet aggregation): ++ | IC50 (calmodulin): 2500 nM
